Data on 14 molecules can be found in patent publication US11339170B1, “Spiropyrrolidine derived antiviral agents” (priority 2021, dated 2022).

pEC50, pIC50: −log10 of the molar value.

For one test, the target named is SARS-CoV-2 3CL-protease (Severe acute respiratory syndrome coronavirus 2 (2019-nCoV) (SARS-CoV-2), UniProt P0DTD1). As to the kind of experiment: SARS-CoV-2 3C-like (3CL) protease fluorescence assay (FRET). The format is biochemical.
Test [1] relates to 229E human corona virus (hCoV). The test is described as follows: 229E live virus assay (CPE, ATPlite readout) in MRC-5 cells. The format is cell-based, hCoV-229E. The note with it: Human coronavirus 229E, MRC5, 144 h, read-out: 229E EC50.

As to `CC(C)C[C@@H](C(=O)N1C[C@]2(C[C@H]1C#N)C(=O)Nc1ccccc12)N(C)C(=O)C(=O)NC(C)(C)C` [Compound 44], the pIC50 against SARS-CoV-2 3CL-protease was greater than 7.00. Moreover, in test [1], the pEC50 is greater than 7.00.
In the case of `CN(C(=O)C(=O)Nc1ccc(F)c(F)c1)[C@@H](Cc1ccccc1)C(=O)N1C[C@]2(C[C@H]1C#N)C(=O)Nc1ccccc12` [Compound 45], the pIC50 against SARS-CoV-2 3CL-protease was greater than 7.00. In addition, in test [1], the pEC50 was greater than 7.00.
`[2H]C([2H])([2H])N(C(=O)C(=O)Nc1ccc(F)c(F)c1)[C@@H](Cc1ccc(F)cc1)C(=O)N1C[C@]2(C[C@H]1C#N)C(=O)Nc1ccccc12` [Compound 46]: the pIC50 against SARS-CoV-2 3CL-protease was greater than 7.00. The pEC50 in test [1] is greater than 7.00.
On to `[2H]C([2H])([2H])N(C(=O)C(=O)Nc1ccc(F)c(F)c1)[C@@H](CCCC)C(=O)N1C[C@]2(C[C@H]1C#N)C(=O)Nc1ccccc12` [Compound 47], for which the pIC50 against SARS-CoV-2 3CL-protease is greater than 7.00. Also, in test [1], the pEC50 was greater than 7.00.
`[2H]C([2H])([2H])N(C(=O)C(=O)C(C)(C)C)[C@@H](CCCC)C(=O)N1C[C@]2(C[C@H]1C#N)C(=O)Nc1ccccc12` [Compound 48]: the pIC50 against SARS-CoV-2 3CL-protease was greater than 7.00. For the same molecule, the pEC50 in test [1] is greater than 7.00.
On to `[2H]C([2H])([2H])N(C(=O)C(=O)NC(C)(C)C)[C@@H](CCCC)C(=O)N1C[C@]2(C[C@H]1C#N)C(=O)Nc1ccccc12` [Compound 49], for which, on SARS-CoV-2 3CL-protease, the pIC50 is greater than 7.00. In addition, in test [1], the pEC50 was greater than 7.00.
In the case of `[2H]C([2H])([2H])N(C(=O)C(=O)Nc1cnc2ccccc2c1)[C@@H](CCCC)C(=O)N1C[C@]2(C[C@H]1C#N)C(=O)Nc1ccccc12` [Compound 50], the pIC50 at SARS-CoV-2 3CL-protease is greater than 7.00. Besides, in test [1], the pEC50 was greater than 7.00.
Consider `[2H]C([2H])([2H])N(C(=O)C(=O)Nc1cnc2ccccc2c1)[C@@H](CC1CC1)C(=O)N1C[C@]2(C[C@H]1C#N)C(=O)Nc1ccccc12` [Compound 51], for which, at SARS-CoV-2 3CL-protease, the pIC50 was greater than 7.00. Also, the pEC50 in test [1] is greater than 7.00.
At SARS-CoV-2 3CL-protease, `CC(C)C[C@@H](C(=O)N1C[C@]2(C[C@H]1C#N)C(=O)Nc1ccccc12)N(C)C(=O)C(=O)Nc1nc2ccccc2[nH]1` [Compound 52] gave a pIC50 of 6.00 to 7.00. The pEC50 in test [1] is greater than 7.00.
The matching figures for `CC(C)C[C@@H](C(=O)N1C[C@]2(C[C@H]1C#N)C(=O)Nc1ccccc12)N(C)C(=O)C(=O)Nc1nc2ccccc2o1` [Compound 53]: less than 6.00 and 6.00 to 7.00.
The matching figures for `[2H]C([2H])([2H])N(C(=O)C(=O)Nc1ccc(C(F)(F)F)cc1C(F)(F)F)[C@@H](CC1CC1)C(=O)N1C[C@]2(C[C@H]1C#N)C(=O)Nc1ccccc12` [Compound 68]: greater than 7.00 and greater than 7.00.
The matching figures for `CC(C)(C)C[C@H](NC(=O)C(=O)NC1CC1)C(=O)N1C[C@]2(C[C@H]1C#N)C(=O)Nc1ccccc12` [Compound 70]: greater than 7.00 and greater than 7.00.
The molecule `CC(C)(C)C[C@H](NC(=O)C(=O)Nc1c(F)cccc1F)C(=O)N1C[C@]2(C[C@H]1C#N)C(=O)Nc1ccccc12` [Compound 71] showed a pIC50 against SARS-CoV-2 3CL-protease greater than 7.00. In test [1], the pEC50 was greater than 7.00.
The molecule `CC(C)(C)C[C@H](NC(=O)C(=O)NC1(c2ccc(F)cc2F)CC1)C(=O)N1C[C@]2(C[C@H]1C#N)C(=O)Nc1ccccc12` [Compound 72] had a pIC50 at SARS-CoV-2 3CL-protease greater than 7.00. The pEC50 in test [1] is greater than 7.00.
